biological target: Cyclooxygenase (Homo sapiens, UniProt P35354+P23219); assay: Inhibitory activity against Prostaglandin G/H synthase

Compound | IC50
O=C(O)c1ccc(CN2C(=O)C=CC2=O)cc1 | 27 µM
O=C(O)CCCCCCCCCCN1C(=O)C=CC1=O | 40 µM
Cc1ccccc1CN1C(=O)C=CC1=O | 50 µM
CC(=O)Oc1ccc(N2C(=O)C=CC2=O)cc1C(=O)O | 29 µM
O=C(O)CCCCCCCCCCCN1C(=O)C=CC1=O | 140 µM
CCCCCCCCCN1C(=O)C=CC1=O | 12 µM
O=C(O)CCCCCN1C(=O)C=CC1=O | > 800 µM
CC(=O)Oc1cc(N2C(=O)C=CC2=O)ccc1C(=O)O | > 200 µM
O=C(O)CCCCCCN1C(=O)C=CC1=O | 570 µM
CCCCCCCCCCN1C(=O)C=CC1=O | 14 µM
O=C(O)CCCCCCCCCN1C(=O)C=CC1=O | 37 µM
O=C(O)CCCCCCCCN1C(=O)C=CC1=O | 26 µM
O=C(O)c1ccccc1OCCN1C(=O)C=CC1=O | 250 µM

Source: ChEMBL document CHEMBL1129063, “Design, synthesis, and biochemical evaluation of N-substituted maleimides as inhibitors of prostaglandin endoperoxide synthases” (J Med Chem, 1996)
